Like-named read-outs stand apart in the source and are kept apart here. Numbered stars: 1 amine (or outer) side, 2 acyl side, 3 side chain; on linkers, the order of the positions; unused ones are H or OH. Bridge positions count the residues as written; N and C are the ends. Square brackets hold non-standard residues; d marks the D form. Peptide text beside a SMILES is read from it. Phe(4-guanidino) = N=C(N)Nc1ccc(C[C@H](N)C(=O)O)cc1; TBMB = c1c(C[*:1])cc(C[*:3])cc1C[*:2]; NMeR = CN[C@@H](CCCNC(=N)N)C(=O)O; Hyp = O=C(O)[C@@H]1C[C@@H](O)CN1; hArg = N=C(N)NCCCC[C@H](N)C(=O)O; Tic = O=C(O)[C@@H]1Cc2ccccc2CN1; Pen = CC(C)(S)[C@H](N)C(=O)O; βAla = NCCC(=O)O
Tests used:
human plasma Kallikrein = molecular target: T1, human plasma Kallikrein (Homo sapiens, UniProt P03952); assay: Functional enzyme inhibition assay, fluorogenic substrate Z-PheArg-AMC; format: biochemical; settings: for loss in potency / reduction in affinity compared to wildtype: vs Ac-06-34-18(TMB)-NH2
T1 construct: purchased Stratech, UK
Method: Peptides were dissolved as the TFA-salts in their powder form, and stock solutions were usually prepared in water. All solutions were centrifuged and filtered ([…] syringe filters) prior absorption measurement at 280 nm. […] For peptides containing non-natural amino acids with suspected chromophoric properties (i.e. NorHar, 4PhenylPro, 3PaI, 4PaI, Tic, 4GuanPhe, 4,4-BPAI, 3,3-DPA, 1NAI, 2NAI, 4BenzylPro, Ind) concentrations were determined by weighing the powder and dissolving the peptide in a defined quantity of water.

[1] = Plasma stability profiling method 1 (35% plasma, MALDI-TOF, qualitative); format: in vitro ADME, rat; settings: for Observable in rat plasma, for days: 35% rat plasma, 37 deg C, method 1, comparative estimate; for rat plasma stability: method 1
Summary of the method: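 Peptide at 200 uM incubated at 37 deg C in 35% rat or human citrated plasma with 1×PBS, sampled at 0, 3, 24 h then daily up to 10 days. Parent mass tracked by MALDI-TOF at similar laser intensity; value is time until parent no longer detectable, qualitative only.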

[2] = Plasma stability method 3 (95% plasma, quantitative LC/MS, Biofocus); format: in vitro ADME, rat
Method: To obtain plasma stability quantitatively, peptide stock solutions (1 mM in DMSO) were shipped to Biofocus, UK, who performed the analysis. Peptides were diluted to 100 uM with water, and diluted 1:20 in plasma (5 uM final concentration, with the plasma at 95%), sampled as appropriate, precipitated as above, and quantified using a Waters Xevo TQ-MS.

[3] = Ki (nM) (human kallikrein), Ac-06-34-18(TMB)-NH2 series

T1 sequence (P03952 20-638): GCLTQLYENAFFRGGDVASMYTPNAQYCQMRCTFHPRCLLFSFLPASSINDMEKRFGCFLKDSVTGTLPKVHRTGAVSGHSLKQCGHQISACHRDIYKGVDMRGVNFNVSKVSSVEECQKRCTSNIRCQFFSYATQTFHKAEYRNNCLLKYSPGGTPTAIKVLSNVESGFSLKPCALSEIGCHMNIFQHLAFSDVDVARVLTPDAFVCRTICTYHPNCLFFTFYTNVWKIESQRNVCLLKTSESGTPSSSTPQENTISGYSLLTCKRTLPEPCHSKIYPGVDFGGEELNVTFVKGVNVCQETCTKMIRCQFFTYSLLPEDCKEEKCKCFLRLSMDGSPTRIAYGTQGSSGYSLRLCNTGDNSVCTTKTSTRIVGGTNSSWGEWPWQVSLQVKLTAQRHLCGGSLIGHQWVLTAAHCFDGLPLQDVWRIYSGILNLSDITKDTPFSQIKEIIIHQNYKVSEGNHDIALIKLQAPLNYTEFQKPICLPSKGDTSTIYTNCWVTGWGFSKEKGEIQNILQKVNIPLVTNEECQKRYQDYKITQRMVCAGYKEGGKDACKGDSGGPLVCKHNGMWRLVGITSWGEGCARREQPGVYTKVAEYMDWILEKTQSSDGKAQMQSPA

Structure (SMILES)	Observable in rat plasma, for days [1] [days]	t1/2 (hrs) in rat plasma ([2]; rat, plasma, 5 uM) [h]	Ki (human plasma Kallikrein; [3]) [nM]	other results
CC(=O)N[C@H]1CSCc2cc3cc(c2)CSC(C)(C)[C@H](NC(=O)[C@H](CCCNC(=N)N)NC(=O)[C@H](C)NC(=O)[C@@H]2CCCN2C(=O)[C@H](Cc2c[nH]c4ccccc24)NC(=O)[C@H](CO)NC1=O)C(=O)N[C@@H](CC(C)C)C(=O)N[C@@H](Cc1c[nH]cn1)C(=O)N[C@@H](CCC(N)=O)C(=O)N[C@@H](CC(=O)O)C(=O)N[C@@H](CC(C)C)C(=O)N[C@H](C(N)=O)CSC3 [Ac-(06-34-18) Cys2ToPen2] (Ac-CSWPAR[Pen]LHQDLC-NH2; linker 1-7-13 via TBMB)	5			potency against human plasma Kallikrein compared to parent (human plasma Kallikrein): potency dropped significantly; rat plasma stability [1]: slightly enhanced
CC(=O)N[C@H]1CSCc2cc3cc(c2)CSC[C@H](NC(=O)[C@H](CCCNC(=N)N)NC(=O)[C@H](C)NC(=O)[C@@H]2CCCN2C(=O)[C@H](Cc2ccccc2)NC(=O)[C@H](CO)NC1=O)C(=O)N[C@@H](CC(C)C)C(=O)N[C@@H](Cc1c[nH]cn1)C(=O)N[C@@H](CCC(N)=O)C(=O)N[C@@H](CC(=O)O)C(=O)N[C@@H](CC(C)C)C(=O)N[C@H](C(N)=O)CSC3 [Ac-(06-34-18) FPAR] (Ac-CSFPARCLHQDLC-NH2; linker 1-7-13 via TBMB)	2			loss in potency / reduction in affinity compared to wildtype (human plasma Kallikrein): 40 fold
CC(=O)N[C@H]1CSCc2cc3cc(c2)CSC[C@H](NC(=O)[C@H](CCCNC(=N)N)NC(=O)[C@H](Cc2ccc(O)cc2)NC(=O)[C@@H]2CCCN2C(=O)[C@H](Cc2ccccc2)NC(=O)[C@H](CO)NC1=O)C(=O)N[C@@H](CC(C)C)C(=O)N[C@@H](Cc1c[nH]cn1)C(=O)N[C@@H](CCC(N)=O)C(=O)N[C@@H](CC(=O)O)C(=O)N[C@@H](CC(C)C)C(=O)N[C@H](C(N)=O)CSC3 [Ac-(06-34-18) FPYR] (Ac-CSFPYRCLHQDLC-NH2; linker 1-7-13 via TBMB)	2	0.9	0.46	
CC(=O)N[C@H]1CSCc2cc3cc(c2)CSC[C@H](NC(=O)[C@H](CCCNC(=N)N)NC(=O)[C@H](C)NC(=O)[C@@H]2C[C@@H](O)CN2C(=O)[C@H](Cc2c[nH]c4ccccc24)NC(=O)[C@H](CO)NC1=O)C(=O)N[C@@H](CC(C)C)C(=O)N[C@@H](Cc1c[nH]cn1)C(=O)N[C@@H](CCC(N)=O)C(=O)N[C@@H](CC(=O)O)C(=O)N[C@@H](CC(C)C)C(=O)N[C@H](C(N)=O)CSC3 [Ac-(06-34-18) HyP3] (Ac-CSW[Hyp]ARCLHQDLC-NH2; linker 1-7-13 via TBMB)	2		0.41	
CC(=O)N[C@H]1CSCc2cc3cc(c2)CSC[C@H](NC(=O)[C@H](CCCNC(=N)N)N(C)C(=O)[C@H](C)NC(=O)[C@@H]2CCCN2C(=O)[C@H](Cc2c[nH]c4ccccc24)NC(=O)[C@H](CO)NC1=O)C(=O)N[C@@H](CC(C)C)C(=O)N[C@@H](Cc1c[nH]cn1)C(=O)N[C@@H](CCC(N)=O)C(=O)N[C@@H](CC(=O)O)C(=O)N[C@@H](CC(C)C)C(=O)N[C@H](C(N)=O)CSC3 [Ac-(06-34-18) NMeArg5]				loss in potency / reduction in affinity compared to wildtype (human plasma Kallikrein): 20 fold; rat plasma stability [1]: exceeds the assay time
CC(=O)N[C@H]1CSCc2cc3cc(c2)CSC[C@H](NC(=O)[C@H](Cc2ccc(NC(=N)N)cc2)NC(=O)[C@H](Cc2ccc(O)cc2)NC(=O)[C@@H]2CCCN2C(=O)[C@H](Cc2ccccc2)NC(=O)[C@H](CO)NC1=O)C(=O)N[C@@H](CC(C)C)C(=O)N[C@@H](Cc1c[nH]cn1)C(=O)N[C@@H](CCC(N)=O)C(=O)N[C@@H](CC(=O)O)C(=O)N[C@@H](CC(C)C)C(=O)N[C@H](C(N)=O)CSC3 [Ac-(06-34-18) Phe2 Tyr4 4GuanPhe5] (Ac-CSFPY[Phe(4-guanidino)]CLHQDLC-NH2; linker 1-7-13 via TBMB)	>10	5.0	0.4	
CC(=O)N[C@H]1CSCc2cc3cc(c2)CSC[C@H](NC(=O)[C@H](CCCCNC(=N)N)NC(=O)[C@H](Cc2ccc(O)cc2)NC(=O)[C@@H]2CCCN2C(=O)[C@H](Cc2ccccc2)NC(=O)[C@H](CO)NC1=O)C(=O)N[C@@H](CC(C)C)C(=O)N[C@@H](Cc1c[nH]cn1)C(=O)N[C@@H](CCC(N)=O)C(=O)N[C@@H](CC(=O)O)C(=O)N[C@@H](CC(C)C)C(=O)N[C@H](C(N)=O)CSC3 [Ac-(06-34-18) Phe2 Tyr4 HomoArg5] (Ac-CSFPY[hArg]CLHQDLC-NH2; linker 1-7-13 via TBMB)	>10	12.2		rat plasma stability enhanced by a factor ([2]; vs parent Phe2Tyr4 peptide): 13
CC(=O)N[C@H]1CSCc2cc3cc(c2)CSC[C@H](NC(=O)[C@H](CCCNC(=N)N)N(C)C(=O)[C@H](Cc2ccc(O)cc2)NC(=O)[C@@H]2CCCN2C(=O)[C@H](Cc2ccccc2)NC(=O)[C@H](CO)NC1=O)C(=O)N[C@@H](CC(C)C)C(=O)N[C@@H](Cc1c[nH]cn1)C(=O)N[C@@H](CCC(N)=O)C(=O)N[C@@H](CC(=O)O)C(=O)N[C@@H](CC(C)C)C(=O)N[C@H](C(N)=O)CSC3 [Ac-(06-34-18) Phe2 Tyr4 NMeArg5] (Ac-CSFPY[NMeR]CLHQDLC-NH2; linker 1-7-13 via TBMB)	>10	>20	3.56	
CC(=O)N[C@H]1CSCc2cc3cc(c2)CSC[C@H](NC(=O)[C@H](CCCNC(=N)N)NC(=O)[C@H](C)NC(=O)[C@@H]2Cc4ccccc4CN2C(=O)[C@H](Cc2c[nH]c4ccccc24)NC(=O)[C@H](CO)NC1=O)C(=O)N[C@@H](CC(C)C)C(=O)N[C@@H](Cc1c[nH]cn1)C(=O)N[C@@H](CCC(N)=O)C(=O)N[C@@H](CC(=O)O)C(=O)N[C@@H](CC(C)C)C(=O)N[C@H](C(N)=O)CSC3 [Ac-(06-34-18) Tic3] (Ac-CSW[Tic]ARCLHQDLC-NH2; linker 1-7-13 via TBMB)	2		13.5	
CC(=O)N[C@H]1CSCc2cc3cc(c2)CSC[C@H](NC(=O)[C@H](CCCNC(=N)N)NC(=O)[C@H](Cc2ccc(O)cc2)NC(=O)[C@@H]2CCCN2C(=O)[C@H](Cc2c[nH]c4ccccc24)NC(=O)[C@H](CO)NC1=O)C(=O)N[C@@H](CC(C)C)C(=O)N[C@@H](Cc1c[nH]cn1)C(=O)N[C@@H](CCC(N)=O)C(=O)N[C@@H](CC(=O)O)C(=O)N[C@@H](CC(C)C)C(=O)N[C@H](C(N)=O)CSC3 [Ac-(06-34-18) WPYR] (Ac-CSWPYRCLHQDLC-NH2; linker 1-7-13 via TBMB)	2		0.41	
CC(=O)N[C@H]1CSCc2cc3cc(c2)CSC[C@H](NC(=O)[C@H](CCCNC(=N)N)NC(=O)[C@H](C)NC(=O)[C@@H]2CCCN2C(=O)[C@H](Cc2c[nH]c4ccccc24)NC(=O)[C@H](CO)NC1=O)C(=O)N[C@@H](CC(C)C)C(=O)N[C@@H](Cc1c[nH]cn1)C(=O)N[C@@H](CCC(N)=O)C(=O)N[C@@H](CC(=O)O)C(=O)N[C@@H](CC(C)C)C(=O)N[C@H](C(N)=O)CSC3 [Ac-(06-34-18) wildtype]				t1/2 (hrs) in rat plasma ([2]; method 3, quantitative, listed as Ac-06-34-18(TMB)-NH2): about 2 hrs; Observable in rat plasma, for days ([1]; listed as Ac-06-34-18(TMB)-NH2): about 2 days
CC(=O)N[C@H]1CSCc2cc3cc(c2)CSC[C@H](NC(=O)[C@H](CCCNC(=N)N)NC(=O)CCNC(=O)[C@@H]2CCCN2C(=O)[C@H](Cc2c[nH]c4ccccc24)NC(=O)[C@H](CO)NC1=O)C(=O)N[C@@H](CC(C)C)C(=O)N[C@@H](Cc1c[nH]cn1)C(=O)N[C@@H](CCC(N)=O)C(=O)N[C@@H](CC(=O)O)C(=O)N[C@@H](CC(C)C)C(=O)N[C@H](C(N)=O)CSC3 [Ac-(06-34-18) β-Ala4] (Ac-CSWP[βAla]RCLHQDLC-NH2; linker 1-7-13 via TBMB)	10			Ki (human plasma Kallikrein; text b279, read-out: affinity to Kallikrein): ~20000 nM

Reference: US11912794B2, “Modulation of structured polypeptide specificity” (BicycleRD Limited, priority 2011, dated 2024)
